Results as given in patent US7842806B2, “Pyridopyrimidone derivatives, preparation thereof, therapeutic use thereof” (sanofi-aventis, priority 2006, dated 2010).
Like-named read-outs stand apart in the source and are kept apart here.

Legend:
MDA-MB231 cells = experiment: MTS cell proliferation and viability test, MDA-MB231 breast cancer line; format: cell-based, human; details: incubating for 72 hours, read-out: IC50 (concentration which results in a 50% loss of cell proliferation and viability)
Method: […]
(§1) The cell proliferation and viability were determined in a test using 3-(4,5-dimethylthiazol-2-yl)-5-(3-carboxymethoxyphenyl)-2-(4-sulfophenyl)-2H-tetrazolium (MTS) according to Fujishita T. et al., Oncology, 2003, 64 (4), 399-406. In this test, the mitochondrial ability of the living cells to convert MTS to a colored compound is measured after incubating for 72 hours a compound of formula (I) according to the invention. […]

K562 cells = experiment: MTS cell proliferation and viability test, K562 leukemia line; format: cell-based, human; details: incubating for 72 hours, read-out: IC50 (concentration which results in a 50% loss of cell proliferation and viability)
Method: […]
as §1

SMILES | IC50 (MDA-MB231 cells) | IC50 (K562 cells; Homo sapiens) | IC50 (K562 cells)
Cn1c(=O)c(-c2c(Cl)cccc2Cl)cc2cnc(Nc3ccc4c(c3)COC4)nc21 [Example 2, 6-(2,6-dichlorophenyl)-2-[(1,3-dihydro-5-iso-benzofuranyl)amino]-8-methyl-8H-pyrido[2,3-d]pyrimidin-7-one] | 10 nM |  | 
Cn1c(=O)c(-c2c(Cl)cccc2Cl)cc2cnc(Nc3ccc4c(c3)OC(CN)O4)nc21 (racemic) [Example 1, (R/S)-2-[[2-(aminomethyl)-1,3-benzodioxol-5-yl]amino]-6-(2,6-dichlorophenyl)-8-methyl-8H-pyrido[2,3-d]pyrimidin-7-one] |  | 3 nM | 
CNC(=O)C1COc2ccc(Nc3ncc4cc(-c5c(Cl)cccc5Cl)c(=O)n(C)c4n3)cc2O1 (racemic) [Example 8, (R/S)-N-methylamide of 7-[6-(2,6-dichlorophenyl)-8-methyl-7-oxo-7,8-dihydropyrido[2,3-d]pyrimidin-2-ylamino]-2,3-dihydrobenzo[1,4]dioxin-2-carboxylic acid] | 183 nM |  | 20.5 nM
